# “Also recorded” adds a separate entry of the source. Like-named read-outs stand apart in the source and are kept apart here.
# Legend:
# [1] = tested on: CPAP-tubulin interaction in MCF10A cells; assay: immunopurification of CPAP complexes from treated cells; format: cell-based, human; conditions: CPAP complexes from cytoplasmic extracts of MCF10A
# Procedure: Finally, it was tested if compound (B) could prevent CPAP-tubulin interaction in cells and simultaneously enhance the ability of CPAP to bind its interacting proteins. CPAP complexes from cytoplasmic extracts of compound (B)-treated MCF10A cells were immunopurified.
# [2] = tested on: Cep152, PCNT and CDK5RAP2 recruitment to interphase centrosomes of MCF10A cells; assay: PCM protein recruitment to interphase centrosomes (imaging, heat map intensity); format: cell-based, human; conditions: versus vehicle
# From the text: Mechanisms by which compound (B) activates extra centrosomes to nucleate enhanced microtubules were identified. Peri-centriolar material (PCM) recruitment to centrosomes is required for microtubule nucleation.
# To test this, we estimated the amounts of Cep152, PCNT and CDK5RAP2 recruitment to interphase centrosomes of compound (B)—treated MCF10A cells.
# [3] = tested on: subcutaneous human prostate tumor cell (PC3) xenografts; assay: PC3 xenograft in nude mice; format: in vivo
# Procedure: To evaluate the anti-tumor activity of compound (A), compound (A) was delivered to nude mice bearing subcutaneous human prostate tumor cell (PC3) xenografts. Compound (A) was administered (10 mg/kg) by oral gavage once per day and the rate of tumor growth was monitored. Compared to vehicle treated controls, it was noticed a reduction in tumor growth rate in compound-(A)-treated mice. Importantly, the anti-tumor activity of compound (A) could be observed as determined by reduced tumor volume with respect to control at day 10.
# (§1) To evaluate if compound (B) has anti-tumor activity in vivo, nude mice bearing subcutaneous human prostate (PC3) and breast (MDA-MB-231) tumor xenografts were used.
# (§2) In each case, two groups of mice bearing tumor volume >100 mm^3 were used. Compound (B) (10 or 20 mg, Kg-1/day) by oral gavage was delivered. At the end of treatment, we measured the total tumor volume of compound (B)-treated groups and compared with vehicle-treated controls.
# [4] = tested on: two-centrosomes containing cells; assay: live imaging for microtubule toxic effect; format: cell-based
# Procedure: Except compound (B), neither of the tested tubulin binders could perturb CPAP-tubulin interaction, enhance PCM recruitment to interphase centrosomes and prevent extra centrosomes from clustering. […] In addition, to rule out the possible microtubule toxic effect of compound (B), live imaging experiments were performed.
# [5] = tested on: extra-centrosomes in cancer cells; assay: cell-based assay of centrosome declustering activity
# Procedure: (§3) To evaluate the effect of compound (A) in cancer cells, a spectrum of breast cancer-(BT549, MDA-MB-231), lung cancer-(TKI-sensitive PC9, TKI-resistant H1975^T790M or HCC827 with C-met amplification) and hepatocellular carcinoma-(POP10) cells was treated with compound (A) for 24 h.
# [6] = tested on: MCF10A (+Dox, extra centrosomes) and HCC827-GR cells; assay: live imaging of extra-centrosome cells; format: cell-based, human
# [7] = tested on: subcutaneous human breast (MDA-MB-231) tumor xenografts; assay: MDA-MB-231 xenograft in nude mice; format: in vivo
# Procedure: as §1, §2
# stability = format: physicochemical
# solubility = format: physicochemical
# [8] = tested on: BT549, MDA-MB-231, PC9, H1975T790M, HCC827, POP10 cells; assay: cancer cell proliferation, spectrum of cancer cell lines; format: cell-based; conditions: range over BT549, MDA-MB-231, PC9, H1975T790M
# Procedure: as §3
# The effects of compound (B) on a spectrum of breast cancer-(BT549, MDA-MB-231),NSCLC-(PC9, TM-resistant H1975T790M, HCC827-GR) and hepatocellular-carcinoma-(POP10)-cells were tested by treatment with compound (B) for 72 hrs.
# [9] = tested on: 3D-organotypic cultures of H1975T790M, HCC827-GR and A549; assay: 3D organotypic culture invasion model; format: cell-based
# From the text: Further, to test whether preventing CPAP-tubulin interaction could impair cancer cell invasiveness, a three-dimensional (3D) organotypic culture model for cancer cells was adapted that recapitulates many aspects of human epithelial cancer tissue architecture.
# [10] = tested on: Plk-4-inducible MCF10A cells; assay: tolerability and cellular toxicity in Plk-4-inducible MCF10A; format: cell-based, human
# From the text: Building on Example 1, a proof-of-principle experiment was established in which lentiviral-mediated transduction of constitutive or doxycycline-inducible CPAP^F375A that cannot interact with tubulin (hereafter CPAPΔT) was introduced into non-transformed human mammary epithelial MCF10A cells. These MCF10A cells are engineered to regulate centrosome amplification via doxycycline-inducible overexpression of Polo-Like-Kinase (PLK4). Introducing CPAPΔT prematurely activated Plk4-induced extra-centrosomes in interphase to nucleate microtubules and prevented them from clustering.
# Since compound (A) is a tubulin binder, its tolerability and cellular toxicity in comparison to taxol in Plk-4-inducible MCF10A was evaluated.
# CPAP-tubulin interaction = assay: AlphaScreen assay of inhibition of the CPAP-tubulin interaction (normalized AlphaScreen signal; triplicate determination; TruHit kit as counter-control); format: binding
# From the text: FIGS. 1 to 4, 19 and 20 show normalized AlphaScreen signal for conventional tubulin binders Vinblastin (FIG. 1), Paclitaxel (FIG. 2), Docetaxel (FIG. 3) Colchicin (FIG. 4), Bactallin III (FIG. 19) and Taxol (FIG. 20).
# Most tubulin-binding agents act on spindle microtubules and thus prevent mitosis nonspecifically.
# The Error bars in FIGS. 1 to 16, 19 and 20 indicate data from a triplicate determination. The TruHit Kit captures possible effects on AlphaScreen assay technology.
# [11] = tested on: MDA-MB-231 cells expressing tubulin-GFP; assay: live cell experiments, MDA-MB-231 tubulin-GFP; format: cell-based
# cancer cells = assay: 24 h EdU pulse labeling experiment; format: cell-based; conditions: 24 h pulse labeling
# A549 cells = assay: cell proliferation with erlotinib, A549; format: cell-based
# H827 cells = assay: cell proliferation with erlotinib, H827; format: cell-based
smiles,measurement,setting,value
"COc1ncc2cc3ccccc3nc2c1C#N [compound (B), 3-Methoxybenzo[b][1,6]naphthyridine-4-carbonitrile]",CPAP-tubulin interaction in cells,[1],specifically perturbs
same,"recruitment of PCM proteins (Cep152, PCNT, CDK5RAP2) to interphase centrosomes",[2],enhanced amounts
same,tumor growth rate versus vehicle,"[3]; PC3, 10 or 20 mg/kg/day oral gavage",significant reduction
same,tumor volume with respect to control,"[3]; PC3, after 10 days",reduced
same,body weights of treated animals,"[3]; PC3 model, 10 or 20 mg/kg/day oral",did not change
same,"concentration not affecting microtubule dynamics, cell cycle progression or mitotic spindle assembly",[4],up to 5 μM
same,concentration not preventing formation of bipolar mitotic spindles,[4],up to 8 μM
same,centrosome declustering activity (preventing extra centrosomes from clustering),[5]; cancer cells,potent; also recorded: prevented clustering of extra centrosomes
same,mitosis and cell fate in live imaging,[6],prolonged mitosis with an apparent apoptosis
same,tumor growth rate versus vehicle,"[7]; MDA-MB-231, 10 or 20 mg/kg/day oral gavage",significant reduction
same,tumor volume with respect to control,"[7]; MDA-MB-231, after 31 days",reduced
same,body weights of treated animals,"[7]; MDA-MB-231 model, 10 or 20 mg/kg/day oral",did not change
same,stability relative to compound (A),stability,increased
same,solubility relative to compound (A),solubility,increased
same,IC50,"[8]; HCC827-GR, POP10, treated 72 hrs",860 to 2900 nM
same,prevention of actin-positive invasive protrusions from 3D spheres,"[9]; 5 μM, H1975T790M, HCC827-GR, A549 organoids",sufficient to prevent
same,cell death in organoids,[9]; H1975T790M organoids,activated caspase-positive cells
same,organoid growth,[9]; treated organoids,did not grow further from its original size
"CC(=O)O[C@H]1C(=O)[C@@]2(C)[C@H]([C@H](OC(=O)c3ccccc3)[C@]3(O)C[C@H](OC(=O)[C@H](O)[C@@H](NC(=O)c4ccccc4)c4ccccc4)C(C)=C1C3(C)C)[C@]1(OC(C)=O)CO[C@@H]1C[C@@H]2O [taxol, reference compound]",concentration that collapsed the spindles,[4],30 nM
same,MCF10A cell proliferation regardless of extra centrosomes,[10]; 100 nM,non-selectively prevented
same,centrosome clustering in MCF10A,[10]; taxol treatment,did not affect centrosome clustering
N#Cc1c(Sc2ccccc2)ncc2cc3ccccc3nc12 [Compound G],IC50,CPAP-tubulin interaction; values in nM,211 nM
CCC(CO)Nc1ncc2cc3ccccc3nc2c1C#N (racemic) [Racemic mixture of compounds C and C‘],IC50,CPAP-tubulin interaction; values given in µM,1390 nM
N#Cc1c(SCC(=O)Nc2ccccc2)ncc2cc3ccccc3nc12 [Compound I],IC50,CPAP-tubulin interaction; values given in µM,1760 nM
"CC(=O)O[C@H]1C(=O)[C@@]2(C)[C@H]([C@H](OC(=O)c3ccccc3)[C@]3(O)C[C@H](OC(=O)[C@H](O)[C@@H](NC(=O)c4ccccc4)c4ccccc4)C(C)=C1C3(C)C)[C@]1(OC(C)=O)CO[C@@H]1C[C@@H]2O [Paclitaxel, reference compound]",IC50,CPAP-tubulin interaction; values given in µM,52600 nM
N#Cc1c(N2CCCCC2)ncc2cc3ccccc3nc12 [Compound L],IC50,CPAP-tubulin interaction; values given in µM,1880 nM
CCCCNc1ncc2cc3ccccc3nc2c1C#N [compound (A)],tumor growth rate versus vehicle,"[3]; PC3, 10 mg/kg oral gavage once per day",reduction
same,tumor volume with respect to control,"[3]; PC3, 10 mg/kg oral gavage once per day, day 10",reduced
same,mitosis and cell fate in live cells,[11],prolonged mitosis with eventual apoptosis
same,concentration causing declustering of extra-centrosomes in interphase,"[5]; BT549 cells, 24 h treatment",500 nM
same,number of cancer cells with EdU incorporation,cancer cells,reduced number
same,proliferation of MCF10A cells that harbor extra centrosomes,[10],specifically inhibited
same,concentration tolerated without defect in bipolar mitotic spindles,[10]; MCF10A cells with two centrosomes,up to 10 μM
same,IC50,"[8]; HCC827, POP10, treated 24 h",860 to 2900 nM
N#Cc1c(NCc2ccccc2)ncc2cc3ccccc3nc12 [Compound E],IC50,CPAP-tubulin interaction; values given in µM,1210 nM
Nc1n[nH]c2ncc3cc4ccccc4nc3c12 [Compound F],IC50,CPAP-tubulin interaction; values given in µM,6940 nM
C#Cc1cccc(Nc2ncnc3cc(OCCOC)c(OCCOC)cc23)c1 [erlotinib],centrosome clustering in H827,"[5]; H827 cells, erlotinib treatment",does not affect centrosome clustering
same,IC50,"A549 cells; A549, single agent, read-out: IC50 of cell proliferation",5070 nM
same,IC50,"A549 cells; Homo sapiens, A549, A549, addition of 1.5 μM compound (A), read-out: IC50 of erlotinib in combinatorial treatment",500 nM
same,IC50,"A549 cells; Homo sapiens, A549, A549, single agent, read-out: IC50 of cell proliferation",5000 nM
same,prevention of formation of invasive protrusions,[9]; 3D organotypic cultures of H1975 and A549,not
same,IC50,"H827 cells; H827, combined with 750 nM compound (A), read-out: IC50 of erlotinib in combinatorial treatment",30 nM
same,IC50,"H827 cells; H827, single agent, read-out: IC50 of cell proliferation",6900 nM
N#Cc1c(Cl)ncc2cc3ccccc3nc12 [Compound D],IC50,CPAP-tubulin interaction; values in nM,23 nM
N#Cc1c(N2CCCCCC2)ncc2cc3ccccc3nc12 [Compound J],IC50,CPAP-tubulin interaction; values given in µM,6320 nM
